Starred links: 1 amine or outer side, 2 acyl side, 3 side chain; linkers in the order of their positions; H or OH if unused. Non-standard residues stand in square brackets, D forms with d. Residues, ends and D or L forms follow the SMILES beside them. ξ: configuration not given here. ξNMeBmt = C/C=C/C[C@@H](C)[C@@H](O)C(NC)C(=O)O; X1 = CN(C(SCCNC(=N)N)C(=O)[*:2])[*:1]; NMeL = CN[C@@H](CC(C)C)C(=O)O; dNMeL = CN[C@H](CC(C)C)C(=O)O; NMeV = CN[C@H](C(=O)O)C(C)C; ξNMeL = CNC(CC(C)C)C(=O)O; dAbu = CC[C@@H](N)C(=O)O

The test system of the test is lashes and hair around the eyes of patients. The test can be described thus: In vivo treatment: appearance of lashes and hair around the eyes of patients treated in only one eye. Also on record: species or system human. The note with it: glaucoma patients, one drop daily to one eye. The method, then: A study is initiated to systematically evaluate the appearance of lashes and hair around the eyes of patients who are administering 3-[(2-Guanidyl)-ethylthio]-cyclosporin A (the cyclosporine A derivative of Example A, above) in only one eye. The study involves 10 subjects, 5 male, 5 female, average age 70 years, (ranging from 50-94 years). All patients have glaucoma. Each subject is treated daily by the topical application of one drop of the composition of Example 3, below, to provide 3-[(2-Guanidyl)-ethylthio]-cyclosporin A at a dosage of 1.5 µg/ml/eye/day, to the region of one eye by instilling the drop onto the surface of the eye. The region of the fellow control eye is not treated with 3-[(2-Guanidyl)-ethylthio]-cyclosporin A and serves as a control. The mean duration of exposure to 3-[(2-Guanidyl)-ethylthio]-cyclosporin A prior to assessing the parameter of lash growth between the control and study eye is 129 days (range 90-254 days). Observations are made under high magnification at the slit lamp biomicroscope. Documentation of differences between the control and treatment areas is accomplished using a camera specially adapted for use with the slit lamp biomicroscope.

Setting [1] is: 1.5 µg/ml/eye/day, mean exposure 129 days, vs untreated fellow eye, slit lamp biomicroscope.

Consider `C/C=C/C[C@@H](C)[C@@H](O)C1C(=O)N[C@H](CC)C(=O)N(C)C(SCCNC(=N)N)C(=O)N(C)[C@@H](CC(C)C)C(=O)N[C@H](C(C)C)C(=O)N(C)C(CC(C)C)C(=O)N[C@H](C)C(=O)N[C@@H](C)C(=O)N(C)[C@H](CC(C)C)C(=O)N(C)[C@H](CC(C)C)C(=O)N(C)[C@@H](C(C)C)C(=O)N1C` (stereo partly shown) [3-[(2-Guanidyl)-ethylthio]-cyclosporin A] (cyclo(A[dNMeL][dNMeL][NMeV][ξNMeBmt][dAbu][X1][NMeL][dV][ξNMeL][dA])), for which, for the setting “1.5 µg/ml/eye/day, mean exposure 129 days, vs untreated fellow eye, areas below and lateral to the lower lid”, the “Increased growth of vellus hair on lids” value was “vellus hairs are increased in number, appear more robust and are much longer and thicker in treated than in control eyes”. Further, under setting [1], the Length of lashes entry is “Increased length of eyelashes is regularly observed” and the Number of lashes entry is “Increased numbers of lashes are observed in the treated eye of each patient”. For the same compound, the “Perpendicular angulation of hairs” value (lash-like hairs above the lash line and in the medial and lateral canthal areas) is “the hairs are much longer, thicker and heavier. They also leave the surface of the skin at a more acute angle”.

These data come from US20100305047A1, “CYCLOSPORIN DERIVATIVES FOR ENHANCING THE GROWTH OF HAIR” (ALLERGAN, INC., priority 2009, published 2010).
